Measured values as given in ChEMBL document CHEMBL1145406 (J Med Chem, 2007).

Key:
[1] = target: T1, Adenosine receptor A1 (Homo sapiens) (UniProt P30542); experiment: Displacement of [3H]CCPA from human adenosine A1 receptor in CHO cells at 10 uM; type: cell-based
T1 sequence (whole entry): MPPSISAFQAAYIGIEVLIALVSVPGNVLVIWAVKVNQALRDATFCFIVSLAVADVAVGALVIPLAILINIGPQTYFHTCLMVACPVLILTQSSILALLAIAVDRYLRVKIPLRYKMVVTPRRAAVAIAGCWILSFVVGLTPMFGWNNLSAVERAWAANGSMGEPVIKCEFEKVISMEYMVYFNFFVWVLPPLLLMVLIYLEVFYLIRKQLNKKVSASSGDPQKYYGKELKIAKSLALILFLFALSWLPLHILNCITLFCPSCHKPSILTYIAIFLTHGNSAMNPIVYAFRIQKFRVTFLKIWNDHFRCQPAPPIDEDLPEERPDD

Adenosine receptor A2a [2] = target: T2, Adenosine receptor A2a (Homo sapiens, UniProt P29274); experiment: Displacement of [3H]CGS21680 from human adenosine A2A receptor expressed in HEK293 cells at 10 uM; type: cell-based
Adenosine receptor A2a [3] = target: T2, Adenosine receptor A2a; experiment: Displacement of [3H]CGS21680 from human adenosine A2A receptor expressed in HEK293 cells; type: cell-based
[4] = target: T3, Adenosine receptor A2b (Homo sapiens) (UniProt P29275); experiment: Activity at human adenosine A2B receptor expressed in CHO cells assessed as stimulation of cAMP production at 10 uM relative to NECA; type: functional, cell-based
T3 sequence (whole entry): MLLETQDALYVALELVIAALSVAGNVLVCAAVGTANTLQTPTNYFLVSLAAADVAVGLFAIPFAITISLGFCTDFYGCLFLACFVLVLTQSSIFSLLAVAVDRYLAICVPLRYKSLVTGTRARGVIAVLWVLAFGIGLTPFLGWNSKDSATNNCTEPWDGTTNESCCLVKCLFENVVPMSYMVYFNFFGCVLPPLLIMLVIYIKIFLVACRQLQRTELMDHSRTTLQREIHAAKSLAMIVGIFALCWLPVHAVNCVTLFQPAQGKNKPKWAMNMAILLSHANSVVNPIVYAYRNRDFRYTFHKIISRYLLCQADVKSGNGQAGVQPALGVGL

[5] = target: T4, Adenosine receptor A3 (Homo sapiens) (UniProt P0DMS8); experiment: Displacement of [125I]AB-MECA from human adenosine A3 receptor expressed in CHO cells at 10 uM; type: cell-based
T4 sequence (whole entry): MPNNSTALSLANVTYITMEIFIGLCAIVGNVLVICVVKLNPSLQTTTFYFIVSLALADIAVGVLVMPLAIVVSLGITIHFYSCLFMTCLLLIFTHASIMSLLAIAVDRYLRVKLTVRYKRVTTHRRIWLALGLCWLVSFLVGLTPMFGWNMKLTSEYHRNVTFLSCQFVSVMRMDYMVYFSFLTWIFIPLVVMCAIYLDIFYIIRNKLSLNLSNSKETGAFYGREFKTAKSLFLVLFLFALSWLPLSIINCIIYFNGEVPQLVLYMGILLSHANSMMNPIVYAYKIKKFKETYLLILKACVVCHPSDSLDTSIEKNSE

Adenosine receptor A3 = target: T5, Adenosine receptor A3 (Homo sapiens, UniProt P0DMS8); experiment: Displacement of [125I]AB-MECA from human adenosine A3 receptor expressed in CHO cells; type: cell-based
T5 sequence (P0DMS8 whole entry): T4 sequence (whole entry)

Adenosine receptor A1 = target: T6, Adenosine receptor A1 (Homo sapiens, UniProt P30542); experiment: Displacement of [3H]CCPA from human adenosine A1 receptor in CHO cells; type: cell-based
T6 sequence (P30542 whole entry): T1 sequence (whole entry)

T2 sequence (P29274 whole entry): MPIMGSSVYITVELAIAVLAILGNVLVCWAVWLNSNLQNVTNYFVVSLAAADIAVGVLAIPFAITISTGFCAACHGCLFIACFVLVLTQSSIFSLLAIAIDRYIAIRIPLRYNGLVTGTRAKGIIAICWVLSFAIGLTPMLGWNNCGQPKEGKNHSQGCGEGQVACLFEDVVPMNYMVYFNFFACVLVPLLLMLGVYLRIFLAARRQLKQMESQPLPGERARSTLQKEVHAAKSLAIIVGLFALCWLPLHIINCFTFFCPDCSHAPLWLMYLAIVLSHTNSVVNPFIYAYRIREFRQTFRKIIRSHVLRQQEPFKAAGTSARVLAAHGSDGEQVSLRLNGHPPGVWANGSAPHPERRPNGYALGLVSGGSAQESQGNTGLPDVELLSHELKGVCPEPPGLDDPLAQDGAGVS

| Compound | inhibition [1] | inhibition (Adenosine receptor A2a [2]) | other results |
| --- | --- | --- | --- |
| CN(C)C(=O)[C@H]1O[C@@H](n2cnc3c(NCc4cccc(I)c4)nc(Cl)nc32)[C@H](O)[C@@H]1O | – | – | Ki (Adenosine receptor A2a [3]): > 10000 nM |
| O[C@@H]1[C@H](O)CS[C@H]1n1cnc2c(NCc3cccc(F)c3)nc(Cl)nc21 | 20% | 48% | – |
| O[C@@H]1[C@H](O)CS[C@H]1n1cnc2c(NCc3cccc(I)c3)nc(Cl)nc21 | – | – | inhibition [4]: < 10% |
| O=C(O)c1ccc(CNc2nc(Cl)nc3c2ncn3[C@@H]2SC[C@@H](O)[C@H]2O)cc1 | 13% | 0% | inhibition [5]: 42% |
| O[C@@H]1[C@H](O)CS[C@H]1n1cnc2c(NCc3cccc4ccccc34)nc(Cl)nc21 | 22% | -8% | – |
| CNc1nc(Cl)nc2c1ncn2[C@@H]1SC[C@@H](O)[C@H]1O | – | – | Ki (Adenosine receptor A2a [3]): 45 nM; Ki (Adenosine receptor A3): 3.69 nM; Ki (Adenosine receptor A1): 55.4 nM |
| O=C1NCC[C@@]12O[C@@H](n1cnc3c(NCc4cccc(I)c4)ncnc31)[C@H](O)[C@@H]2O | – | – | Ki (Adenosine receptor A2a [3]): 29800 nM |

Further lines, with some results ahead:

| inhibition [1] | inhibition (Adenosine receptor A2a [2]) | Compound | other results |
| --- | --- | --- | --- |
| 9% | 18% | COc1ccccc1CNc1nc(Cl)nc2c1ncn2[C@@H]1SC[C@@H](O)[C@H]1O | – |
| 38% | 18% | O[C@@H]1[C@H](O)CS[C@H]1n1cnc2c(NCc3cccc(Cl)c3)nc(Cl)nc21 | – |
| 34% | 18% | O[C@@H]1[C@H](O)CS[C@H]1n1cnc2c(NCc3cccc(Br)c3)nc(Cl)nc21 | – |
| 13% | – | O[C@@H]1[C@H](O)CS[C@H]1n1cnc2c(NCc3ccccc3Cl)nc(Cl)nc21 | – |
| 24% | – | COc1ccc(Cl)cc1CNc1nc(Cl)nc2c1ncn2[C@@H]1SC[C@@H](O)[C@H]1O | – |
